Test results: ChEMBL document CHEMBL3886170, “Pyrrolo[3,2-c]pyridine tropomyosin-related kinase inhibitors” (2015)
pIC50: −log10 of the molar value.

target: High affinity nerve growth factor receptor (Homo sapiens, UniProt P04629); assay: HTRF Assay: Isolated TRK Enzyme assays use the HTRF KinEASE-TK kit (Cisbio Cat#62TK0PEJ) with recombinant His-tagged cytoplasmic domains of each TRK receptor sourced from Invitrogen (see table below). […] A standard curve using the compound of Example 135 disclosed in WO2005/116035 of 150 uM is also prepared on each test plate. High percentage effect (HPE) is defined by 150 uM.
Sequence (P04629 whole entry, the tested form may be a part): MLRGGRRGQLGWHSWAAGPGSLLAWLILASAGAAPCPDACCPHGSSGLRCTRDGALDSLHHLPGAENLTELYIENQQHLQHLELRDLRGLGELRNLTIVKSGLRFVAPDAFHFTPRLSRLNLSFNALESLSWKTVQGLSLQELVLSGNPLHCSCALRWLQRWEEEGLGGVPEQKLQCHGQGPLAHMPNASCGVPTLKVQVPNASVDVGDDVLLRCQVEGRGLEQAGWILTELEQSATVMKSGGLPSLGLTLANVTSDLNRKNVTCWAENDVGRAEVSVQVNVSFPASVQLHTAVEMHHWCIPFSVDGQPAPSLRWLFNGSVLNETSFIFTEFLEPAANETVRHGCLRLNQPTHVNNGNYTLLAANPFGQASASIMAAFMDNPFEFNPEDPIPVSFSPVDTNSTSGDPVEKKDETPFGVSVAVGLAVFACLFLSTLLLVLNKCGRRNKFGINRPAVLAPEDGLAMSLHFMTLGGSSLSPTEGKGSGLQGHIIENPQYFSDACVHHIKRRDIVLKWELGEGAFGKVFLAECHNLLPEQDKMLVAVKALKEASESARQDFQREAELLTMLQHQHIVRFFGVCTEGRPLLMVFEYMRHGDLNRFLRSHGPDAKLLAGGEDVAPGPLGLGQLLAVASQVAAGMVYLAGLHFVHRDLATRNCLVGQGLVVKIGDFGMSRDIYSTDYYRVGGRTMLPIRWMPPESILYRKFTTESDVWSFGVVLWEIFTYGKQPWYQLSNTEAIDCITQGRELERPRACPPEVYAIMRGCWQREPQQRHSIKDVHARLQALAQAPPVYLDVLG

Compound	pIC50
CC(C)(CO)n1cc(C(=O)c2cncc(NC(=O)Cc3ccc(Cl)cc3)c2)c2cncc(F)c21	8.19
CC(C)(CO)n1cc(C(=O)c2cc(NC(=O)Cn3cc(C(F)(F)F)nn3)ccn2)c2cnccc21	7.10
CC(C)(CO)n1cc(C(=O)c2cncc(NC(=O)Cc3ccc(C#N)cc3)c2)c2cnccc21	8.02
CC(C)(CO)n1cc(C(=O)c2cncc(NC(=O)Cn3cc(C4CC4)nn3)c2)c2cnccc21	7.91
